Test results taken from ChEMBL document CHEMBL5236553, “Advances in the development of HIV integrase strand transfer inhibitors” (Eur J Med Chem, 2021).

Assays:
[1] = molecular target: Human immunodeficiency virus type 1 integrase (Human immunodeficiency virus 1, UniProt Q7ZJM1); assay: Inhibition of HIV-1 integrase strand transfer activity
[2] = system: Human immunodeficiency virus; assay: Binding affinity to HIV-1 wildtype integrase DNA complex assessed as dissociative half life
[3] = system: Human immunodeficiency virus; assay: Antiviral activity against HIV-1 harboring integrase L74M mutant; assay type: functional, organism-based; conditions: Human immunodeficiency virus 1
[4] = system: Human immunodeficiency virus; assay: Antiviral activity against HIV-1 harboring integrase M50I mutant; assay type: functional, organism-based; conditions: Human immunodeficiency virus 1
[5] = system: Human immunodeficiency virus; assay: Antiviral activity against HIV-1 harboring integrase G140S/Q148H mutant; assay type: functional, organism-based; conditions: Human immunodeficiency virus 1
[6] = system: Human immunodeficiency virus; assay: Antiviral activity against HIV-1 harboring integrase […]/N155H mutant; assay type: functional, organism-based; conditions: Human immunodeficiency virus 1
[7] = system: Human immunodeficiency virus; assay: Antiviral activity against HIV-1 harboring integrase E138K/Q148K mutant; assay type: functional, organism-based; conditions: Human immunodeficiency virus 1
[8] = system: Human immunodeficiency virus; assay: Antiviral activity against wild type HIV-1 integrase; assay type: functional, organism-based; conditions: Human immunodeficiency virus 1
[9] = system: Human immunodeficiency virus; assay: Antiviral activity against HIV-1 harboring integrase Q148R mutant; assay type: functional, organism-based; conditions: Human immunodeficiency virus 1
[10] = system: Human immunodeficiency virus; assay: Antiviral activity against HIV-1 harboring integrase G140S/Q148H double mutant; assay type: functional, organism-based; conditions: Human immunodeficiency virus 1
[11] = system: Human immunodeficiency virus; assay: Antiviral activity against HIV-1 harboring integrase N155H mutant; assay type: functional, organism-based; conditions: Human immunodeficiency virus 1
[12] = system: Human immunodeficiency virus; assay: Antiviral activity against HIV-1 harboring integrase E92Q mutant; assay type: functional
[13] = system: Human immunodeficiency virus; assay: Fold change in antiviral EC50 against HIV-1 harboring integrase Y143R mutant; conditions: Human immunodeficiency virus 1
[14] = system: Human immunodeficiency virus; assay: Fold change in antiviral EC50 against HIV-1 harboring integrase Q148K mutant; conditions: Human immunodeficiency virus 1
[15] = system: Human immunodeficiency virus; assay: Antiviral activity against HIV-1 assessed as inhibition of HIV infection in human T cells by cell based assay; assay type: functional, organism-based; conditions: Human immunodeficiency virus 1, T-cell
[16] = Clearance in rat plasma; assay type: ADME, cell-free
[17] = Clearance in dog plasma; assay type: ADME, cell-free, Canis lupus familiaris
[18] = system: Integrase (Human immunodeficiency virus 1); assay: Inhibition of HIV-1 integrase-catalyzed strand transfer
[19] = molecular target: T1, Integrase (Human immunodeficiency virus 1, UniProt T1QYY3, G140S/Q148H); assay: Inhibition of HIV-1 integrase RAL-resistant G140S/Q148H double mutant
[20] = molecular target: Human immunodeficiency virus type 1 integrase (Human immunodeficiency virus 1, UniProt Q7ZJM1, G118R); assay: Inhibition of HIV-1 integrase DTG-resistant G118R mutant
[21] = molecular target: Human immunodeficiency virus type 1 integrase (Human immunodeficiency virus 1, UniProt Q7ZJM1, R263K); assay: Inhibition of HIV-1 integrase DTG-resistant R263K mutant
[22] = molecular target: Human immunodeficiency virus type 1 integrase (Human immunodeficiency virus 1, UniProt Q7ZJM1, H51Y/R263K); assay: Inhibition of HIV-1 integrase DTG-resistant H51Y/R263K double mutant
[23] = molecular target: T1, Integrase; assay: Inhibition of HIV-1 integrase G140S/Q148H double mutant

Question: For `O=C(NCc1ccc(F)c(F)c1)c1c(O)c2cccnc2n(O)c1=O`, which IC50 [1] is on record?
Answer: 400 nM

Question: What does the source list for `C[C@@H]1CCO[C@H]2Cn3cc(C(=O)NCc4ccc(F)cc4F)c(=O)c(O)c3C(=O)N12` [DOLUTEGRAVIR]?
Answer: T1/2 [2]: 71 h; EC50 [3]: 2.2 nM; EC50 [4]: 2.1 nM; EC50 [5]: 3.9 nM; EC50 [6]: 4 nM; EC50 [7]: 25 nM

Question: For `O=C(NCc1ccc(F)c(Cl)c1)c1cc2cccnc2n(O)c1=O`, which IC50 [1] is on record?
Answer: 140 nM

Question: Which IC50 [1] does the source give for `O=C(NCc1ccc(F)cc1F)c1c(O)c2cccnc2n(O)c1=O` here?
Answer: 550 nM

Question: For `O=C(NCc1ccc(F)c(Cl)c1)c1c(O)c2cccnc2n(O)c1=O`, which IC50 [1] is on record?
Answer: 270 nM

Question: Which EC50 [8] does the source give for `CC1(C)OCCn2c1nc(C(=O)NCc1ccc(F)cc1)c(O)c2=O` here?
Answer: 3 nM

Question: And the EC50 [9]?
Answer: 300 nM

Question: What about the EC50 [10] of the same molecule?
Answer: > 8000 nM

Question: What about the EC50 [11] of the same molecule?
Answer: 140 nM

Question: With `O=C(NCc1ccc(F)cc1F)c1cc2cccnc2n(O)c1=O` as the molecule, how does the IC50 [1] read?
Answer: 410 nM

Question: With `CN1C(=O)c2c3c(c(O)c(=O)n2[C@]12CC[C@H]1C[C@@]12CO)C(=O)N(Cc1ccc(F)c(Cl)c1)CC3` as the molecule, how does the “fold change (FC)” value [12] read?
Answer: 1

Question: And the fold change [13]?
Answer: 1

Question: What about the fold change [14] of the same molecule?
Answer: 1

Question: With `COc1cc2c(cc1Cc1cccc(Cl)c1F)c(=O)c(C(=O)O)cn2[C@H](CO)C(C)C` as the molecule, how does the EC50 [15] read?
Answer: 0.9 nM

Question: With `CC(C)n1c(C(=O)N(C)C)c2c(c(O)c1=O)C(=O)N(Cc1ccc(F)c(Cl)c1)CC2` as the molecule, how does the “fold change (FC)” value [12] read?
Answer: 1

Question: What about the clearance [16] of the same molecule?
Answer: 2.3 mL/min/kg

Question: What about the clearance [17] of the same molecule?
Answer: 2.2 mL/min/kg

Question: What about the fold change [13] of the same molecule?
Answer: 2

Question: What about the fold change [14] of the same molecule?
Answer: 1

Question: For `Cc1nnc(C(=O)NC(C)(C)c2nc(C(=O)NCc3ccc(F)cc3)c(O)c(=O)n2C)o1`, which “fold change (FC)” value [12] is on record?
Answer: 3

Question: And the IC50 [18]?
Answer: 10 nM

Question: Which EC50 [19] does the source give for `O=C(NCc1c(F)cc(F)cc1F)c1cn2c(c(O)c1=O)C(=O)N1[C@H]3CC[C@H](C3)O[C@@H]1C2` [BICTEGRAVIR] here?
Answer: ≤ 5 nM

Question: What about the EC50 [20] of the same molecule?
Answer: ≤ 5 nM

Question: And the EC50 [21]?
Answer: ≤ 5 nM

Question: And the EC50 [22]?
Answer: ≤ 5 nM

Question: What about the EC50 [23] of the same molecule?
Answer: 3.1 nM

Question: With `O=C(NCc1ccc(F)c(F)c1)c1cc2cccnc2n(O)c1=O` as the molecule, how does the IC50 [1] read?
Answer: 170 nM

Question: What does the source list for `Nc1c(C(=O)NCc2ccc(F)cc2F)c(=O)n(O)c2ncc(CCCCCCO)cc12`?
Answer: EC50 [3]: 1.6 nM; EC50 [4]: 1.3 nM; EC50 [5]: 0.9 nM; EC50 [6]: 1.1 nM; EC50 [7]: 16 nM

Question: With `O=C(NCc1ccc(F)cc1F)c1cc2cccc(O)c2n(O)c1=O` as the molecule, how does the IC50 [1] read?
Answer: 1800 nM

Question: Which EC50 [9] does the source give for `C[C@H](O)N1C(=O)c2c3c(c(O)c(=O)n2[C@]12CC[C@H]1C[C@H]12)C(=O)N(Cc1ccc(F)c(Cl)c1)CC3` here?
Answer: 1.5 nM

Question: And the EC50 [11]?
Answer: 1.5 nM

Question: What about the “fold change (FC)” value [12] of the same molecule?
Answer: 1.5

Question: What about the fold change [13] of the same molecule?
Answer: 1

Question: And the fold change [14]?
Answer: 1

Question: For `CC1(C)OCCn2c1nc(-c1ncc(Cc3ccc(F)cc3)[nH]1)c(O)c2=O`, which EC50 [8] is on record?
Answer: 6 nM

Question: What about the EC50 [9] of the same molecule?
Answer: 33 nM

Question: And the EC50 [10]?
Answer: 320 nM

Question: What about the EC50 [11] of the same molecule?
Answer: 2 nM
